According to patent publication US20240124444A1 (Celgene Corporation, priority 2020, published 2024):

System: C. parvum strain UGA1
Assay: C. parvum growth inhibition assay (Nluc luminescence in HCT-8 cells)
Assay type: cell-based, Cryptosporidium parvum
Conditions: Cryptosporidium parvum; for EC50: HCT-8, 48 h, C. parvum growth inhibition in HCT-8 cells, 48 hours, 6 concentrations 10-0.04 μM; for inhibition at 1 µM / inhibition at 10 µM: HCT-8; for inhibition at 1 µM: single point inhibition @ 1 uM, read-out: % inh @ 1 uM C. parvum; for inhibition at 10 µM: single point inhibition @ 10 uM, read-out: % inh @ 10 uM C. parvum

Row | Compound | EC50 | inhibition at 1 µM | inhibition at 10 µM
1 | CN(C)C(=O)Nc1cc2[nH]c(C(F)(F)F)cc2cn1 [Example 108, 1,1-dimethyl-3-(2-(trifluoromethyl)-1H-pyrrolo[3,2-c]pyridin-6-yl)urea] | > 1 µM |  | 
2 | CN1CCC(C(=O)Nc2cc3[nH]c(C(F)(F)F)cc3cn2)CC1 [Example 109, 1-methyl-N-(2-(trifluoromethyl)-1H-pyrrolo[3,2-c]pyridin-6-yl)piperidine-4-carboxamide] | > 1 µM |  | 
3 | O=C(Nc1cc2[nH]c(-c3cnc(C(F)(F)F)o3)cc2cn1)C1CC1 [Example 110, N-(2-(2-(trifluoromethyl)oxazol-5-yl)-1H-pyrrolo[3,2-c]pyridin-6-yl)cyclopropanecarboxamide] | > 1 µM |  | 
4 | O=C(Nc1cc2[nH]c(C(F)(F)F)cc2cn1)C1CCCC1 [Example 111, N-(2-(trifluoromethyl)-1H-pyrrolo[3,2-c]pyridin-6-yl)cyclopentanecarboxamide] | > 1 µM |  | 
5 | Cc1cc(-c2cc3cnc(NC4CCN(C)CC4)cc3[nH]2)ccn1 [Example 112, N-(1-methylpiperidin-4-yl)-2-(2-methylpyridin-4-yl)-1H-pyrrolo[3,2-c]pyridin-6-amine] | > 1 µM |  | 
6 | Cc1cc(-c2cc3cnc(NC4COC4)cc3[nH]2)ccn1 [Example 113, 2-(2-methylpyridin-4-yl)-N-(oxetan-3-yl)-1H-pyrrolo[3,2-c]pyridin-6-amine] | > 1 µM |  | 
7 | Cc1cc(-c2cc3cnc(N(C)C4CCOCC4)cc3[nH]2)ccn1 [Example 114, N-methyl-2-(2-methylpyridin-4-yl)-N-(tetrahydro-2H-pyran-4-yl)-1H-pyrrolo[3,2-c]pyridin-6-amine] | > 1 µM |  | 
8 | Cc1c[nH]c2cc(NC(=O)C3CC3)ncc12 [Example 115, N-(3-methyl-1H-pyrrolo[3,2-c]pyridin-6-yl)cyclopropanecarboxamide] | > 1 µM |  | 
9 | O=C(Nc1cc2c(cn1)cc(C(F)(F)F)n2CCO)C1CC1 [Example 116, N-(1-(2-hydroxyethyl)-2-(trifluoromethyl)-1H-pyrrolo[3,2-c]pyridin-6-yl)cyclopropanecarobxamide] | > 1 µM |  | 
10 | Cc1cc(-c2cc3cnc(NC4CCN(C)CC4)cc3n2C)ncn1 [Example 117, 1-methyl-N-(1-methylpiperidin-4-yl)-2-(6-methylpyrimidin-4-yl)-1H-pyrrolo[3,2-c]pyridin-6-amine] | > 1 µM |  | 
11 | Cc1cc(-c2cc3cnc(NC(=O)C(C)C)cc3n2C)ncn1 [Example 118, N-(1-methyl-2-(6-methylpyrimidin-4-yl)-1H-pyrrolo[3,2-c]pyridin-6-yl)isobutyramide] | > 1 µM |  | 
12 | CC(=O)Nc1cc2c(cn1)cc(-c1cc(C)ncn1)n2C [Example 119, N-(1-methyl-2-(6-methylpyrimidin-4-yl)-1H-pyrrolo[3,2-c]pyridin-6-yl)acetamide] | > 1 µM |  | 
13 | Cc1cc(-c2cc3cnc(NC4CCNCC4)cc3n2C)ncn1 [Example 120, 1-methyl-2-(6-methylpyrimidin-4-yl)-N-(piperidin-4-yl)-1H-pyrrolo[3,2-c]pyridin-6-amine] | > 1 µM |  | 
14 | c1nc(NC2CCOCC2)cc2[nH]c(C3CCC3)cc12 [Example 121, 2-cyclobutyl-N-(tetrahydro-2H-pyran-4-yl)-1H-pyrrolo[3,2-c]pyridin-6-amine] | > 1 µM |  | 
15 | CCn1c(-c2cc(C)ncn2)cc2cnc(NC(=O)C3CC3)cc21 [Example 122, N-(1-ethyl-2-(6-methylpyrimidin-4-yl)-1H-pyrrolo[3,2-c]pyridin-6-yl)cyclopropanecarboxamide] | > 1 µM |  | 
16 | Cn1cnc(-c2cc3cnc(NC4CCOCC4)cc3[nH]2)c1 [Example 123, 2-(1-methyl-1H-imidazol-4-yl)-N-(tetrahydro-2H-pyran-4-yl)-1H-pyrrolo[3,2-c]pyridin-6-amine] | > 1 µM |  | 
17 | Cc1cc(-c2cc3cnc(NC(=O)C4CC4)cc3n2CCN(C)C)ncn1 [Example 124, N-(1-(2-(dimethylamino)ethyl)-2-(6-methylpyrimidin-4-yl)-1H-pyrrolo[3,2-c]pyridin-6-yl)cyclopropanecarboxamide] | > 1 µM |  | 
18 | Cc1cc(-c2cc3cnc(N)cc3n2C)ncn1 [Example 125, 1-methyl-2-(6-methylpyrimidin-4-y)-1H-pyrrolo[3,2-c]pyridin-6-amine] | > 1 µM |  | 
19 | CNc1cc2c(cn1)cc(-c1cc(C)ncn1)n2C [Example 126, N,1-dimethyl-2-(6-methylpyrimidin-4-yl)-1H-pyrrolo[3,2-c]pyridin-6-amine] | > 1 µM |  | 
20 | Cc1cc(-c2cc3cnc(NC(=O)CN(C)C)cc3n2C)ncn1 [Example 127, 2-(dimethylamino)-N-(1-methyl-2-(6-methylpyrimidin-4-yl)-1H-pyrrolo[3,2-c]pyridin-6-yl)acetamide] | > 1 µM |  | 
21 | Cc1cc(-c2cc3cnc(NC(=O)CN4CCCC4)cc3n2C)ncn1 [Example 128, N-(1-methyl-2-(6-methylpyrimidin-4-yl)-1H-pyrrolo[3,2-c]pyridin-6-yl)-2-(pyrrolidin-1-yl)acetamide] | > 1 µM |  | 
22 | Cn1c(-c2ccccn2)cc2cnc(NC(=O)C3CC3)cc21 [Example 129, N-(1-methyl-2-(pyridin-2-yl)-1H-pyrrolo[3,2-c]pyridin-6-yl)cyclopropanecarboxamide] | > 1 µM |  | 
23 | Cn1c(-c2cc(C(F)(F)F)ncn2)cc2cnc(NC(=O)C3CC3)cc21 [Example 130, N-(1-methyl-2-(6-(trifluoromethyl)pyrimidin-4-yl)-1H-pyrrolo[3,2-c]pyridin-6-yl)cyclopropanecarboxamide] | > 1 µM |  | 
24 | CC(C)n1cc(C(=O)Nc2cc3c(cn2)cc(-c2ccnc(NCC4CC4)n2)n3C)cn1 [Example 131, N-(2-(2-(cyclopropylmethylamino)pyrimidin-4-yl)-1-methyl-1H-pyrrolo[3,2-c]pyridin-6-yl)-1-isopropyl-1H-pyrazole-4-carboxmaide] |  | 0 to 33% | 67 to 100%
25 | CC(C)n1cc(C(=O)Nc2cc3c(cn2)cc(-c2ccnc(NC4CC4)n2)n3C)cn1 [Example 132, N-(2-(2-(cyclopropylamino)pyrimidin-4-yl)-1-methyl-1H-pyrrolo[3,2-c]pyridin-6-yl)-1-isopropyl-1H-pyrazole-4-carboxamide] |  | 0 to 33% | 67 to 100%
26 | Cn1cc(C(=O)Nc2cc3c(cn2)cc(-c2ccnc(NCCC(F)(F)F)n2)n3C)cn1 [Example 133, 1-methyl-N-(1-methyl-2-(2-(3,3,3-trifluoropropylamino)pyrimidin-4-yl)-1H-pyrrolo[3,2-c]pyridin-6-yl)-1H-pyrazole-4-carboxamide] |  | 0 to 33% | 67 to 100%
27 | CC(C)CC(=O)Nc1cc2[nH]c(-c3ccncc3)cc2cn1 [Example 134, 3-methyl-N-(2-(pyridin-4-yl)-1H-pyrrolo[3,2-c]pyridin-6-yl)butanamide] |  | 0 to 33% | 67 to 100%
28 | O=C(Nc1cc2[nH]c(-c3ccncc3)cc2cn1)[C@@H]1CCOC1 [Example 135, (R)-N-(2-(pyridin-4-yl)-1H-pyrrolo[3,2-c]pyridin-6-yl)tetrahydrofuran-3-carboxamide] |  | 0 to 33% | 67 to 100%
29 | O=C(Nc1cc2[nH]c(-c3ccncc3)cc2cn1)C1CCCC1 [Example 137, N-(2-(pyridin-4-yl)-1H-pyrrolo[3,2-c]pyridin-6-yl)cyclopentanecarboxamide] |  | 0 to 33% | 67 to 100%
